# Test results as given in US12116343B2, “Inhibitors of APOL1 and methods of using same” (Vertex Pharmaceuticals Incorporated, priority 2020, dated 2024).
# Target: T1, G1 APOL1 (Homo sapiens, UniProt O14791, I384M/S342G)
# T1 construct: expressed in transfected cells
# T1 sequence (O14791 28-398 S342G/I384M): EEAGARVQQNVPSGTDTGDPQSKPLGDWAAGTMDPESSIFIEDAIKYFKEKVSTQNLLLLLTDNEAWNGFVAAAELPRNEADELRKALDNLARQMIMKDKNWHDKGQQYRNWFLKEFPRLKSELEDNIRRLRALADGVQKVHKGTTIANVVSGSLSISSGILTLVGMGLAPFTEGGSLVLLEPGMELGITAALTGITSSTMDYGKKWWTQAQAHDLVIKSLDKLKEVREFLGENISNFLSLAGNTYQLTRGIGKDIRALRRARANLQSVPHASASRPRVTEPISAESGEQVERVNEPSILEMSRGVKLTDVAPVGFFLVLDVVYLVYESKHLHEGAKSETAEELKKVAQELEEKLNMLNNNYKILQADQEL
# Assay: Acute APOL1 Thallium Assay with inducible stable clones of HEK 293 cells
# Format: cell-based
# Details: HEK 293 T-Rex cells expressing G1 APOL1; read-out: Thallium Assay (IC50)
# Summary of the method: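 Tetracycline-inducible HEK293 T-Rex clone G1 DC3.25 expressing G1 APOL1, plated at 26000 cells/well in Opti-MEM with tetracycline induction. APOL1 pore activity read on FLIPR as fluorescence increase from Tl+ influx into cells loaded with a Tl+-sensitive AM-ester dye.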
row,IC50 [nM],Structure (SMILES)
1,> 1000,CC1(C)CN(C(=O)[C@H]2C[C@H](c3c(-c4ccc(F)cc4)[nH]c4c(F)cc(F)cc43)C2)CCN1C(=O)[C@H]1C[C@@](C)(O)C1 [Compound 130]
2,> 1000,O=C([C@H]1C[C@H](c2c(-c3ccc(F)cc3)[nH]c3c(F)cc(F)cc32)C1)N1CCC(CCO)CC1 [Compound 134]
3,250 to 1000,CNC(=O)C(C)NC(=O)[C@H]1C[C@H](c2c(-c3ccc(F)cc3)[nH]c3c(F)cc(F)cc32)C1 (mixture of isomers) [Compound 9]
4,> 1000,O=C([C@H]1C[C@H](c2c(-c3ccc(F)cc3)[nH]c3c(F)cc(F)cc32)C1)N1CCC[C@@H](CO)C1 [Compound 109]
5,> 1000,CC1(C)CN(C(=O)[C@H]2C[C@H](c3c(-c4ccc(F)cc4)[nH]c4c(F)cc(F)cc43)C2)CC1O (some centres unmarked) [Compound 102]
6,> 1000,O=C([C@H]1C[C@H](c2c(-c3ccc(F)cc3)[nH]c3c(F)cc(F)cc32)C1)N1CCO[C@H](CO)C1 [Compound 118]
7,> 1000,O=C([C@H]1C[C@H](c2c(-c3ccc(F)cc3)[nH]c3c(F)cc(F)cc32)C1)N1CCCC(CO)C1 (some centres unmarked) [Compound 147]
8,< 250,O=C1C[C@H](NC(=O)[C@H]2C[C@H](c3c(-c4ccc(F)cc4)[nH]c4c(F)cc(F)cc43)C2)C(=O)N1 [Compound 165]
9,> 1000,O=C(O)CNC(=O)[C@H]1C[C@H](c2c(-c3ccc(F)cc3)[nH]c3c(F)cc(F)cc32)C1 [Compound 10]
10,> 1000,O=C([C@H]1C[C@H](c2c(-c3ccc(F)cc3)[nH]c3c(F)cc(F)cc32)C1)N1CCCC[C@@H]1CCO [Compound 156]
11,250 to 1000,O=C1NCC[C@@H]1NC(=O)[C@H]1C[C@H](c2c(-c3ccc(F)cc3)[nH]c3c(F)cc(F)cc32)C1 [Compound 162]
12,> 1000,CCC(O)(CCCO)CNC(=O)[C@H]1C[C@H](c2c(-c3ccc(F)cc3)[nH]c3c(F)cc(F)cc32)C1 (some centres unmarked) [Compound 119]
13,> 1000,O=C([C@H]1C[C@H](c2c(-c3ccc(F)cc3)[nH]c3c(F)cc(F)cc32)C1)N1CCN(CCO)CC1 [Compound 126]
14,< 250,O=C(NC1(CO)CCC1)[C@H]1C[C@H](c2c(-c3ccc(F)cc3)[nH]c3c(F)cc(F)cc32)C1 [Compound 6]
15,> 1000,O=C([C@H]1C[C@H](c2c(-c3ccc(F)cc3)[nH]c3c(F)cc(F)cc32)C1)N1CCCC(CCO)C1 (some centres unmarked) [Compound 128]
16,> 1000,O=C([C@H]1C[C@H](c2c(-c3ccc(F)cc3)[nH]c3c(F)cc(F)cc32)C1)N1CC(O)C(CO)C1 (some centres unmarked) [Compound 138]
17,> 1000,O=C1CCC(NC(=O)[C@H]2C[C@H](c3c(-c4ccc(F)cc4)[nH]c4c(F)cc(F)cc43)C2)C1 (some centres unmarked) [Compound 159]
18,< 250,O=C(NC(CO)CO)[C@H]1C[C@H](c2c(-c3ccc(F)cc3)[nH]c3c(F)cc(F)cc32)C1 [Compound 8]
19,250 to 1000,CN1CCC(NC(=O)[C@H]2C[C@H](c3c(-c4ccc(F)cc4)[nH]c4c(F)cc(F)cc43)C2)C1=O (some centres unmarked) [Compound 7]
20,> 1000,CC(CO)N1CCN(C(=O)[C@H]2C[C@H](c3c(-c4ccc(F)cc4)[nH]c4c(F)cc(F)cc43)C2)CC1 (mixture of isomers) [Compound 122]
